Results as given in patent publication US9023821B2, “Use of MicroRNA for treating diseases associated with a dysfunction of the cilia in multiciliated epithelial cells” (Centre National de la Recherche Scientifique, priority 2009, dated 2015).

Assays:
[1] = tested on: human airway epithelial cells (HAECs); assay: Agilent miRNA chips, miRNA expression at four stages of differentiation of HAECs; details: for Modulation (ratio of the level of intensity of expression in log2 in two stages of differentiation) measured with the Agilent chips, D7 − D0 / Modulation (ratio of the level of intensity of expression in log2 in two stages of differentiation) measured with the Agilent chips, FC − D7 / Modulation (ratio of the level of intensity of expression in log2 in two stages of differentiation) measured with the Agilent chips, WD − D0 / Modulation (ratio of the level of intensity of expression in log2 in two stages of differentiation) measured with the Agilent chips, WD − FC / Level of intensity of expression in log2 measured with the Agilent chips, D0 / Level of intensity of expression in log2 measured with the Agilent chips, D7 / Level of intensity of expression in log2 measured with the Agilent chips, FC / Level of intensity of expression in log2 measured with the Agilent chips, WD: Table VI; for Modulation (ratio of the level of intensity of expression in log2 at two stages of differentiation), FC − D7 / Modulation (ratio of the level of intensity of expression in log2 at two stages of differentiation), WD − FC: Agilent miRNA chips, Table V; for Level of intensity of expression in log2 measured with the Agilent chips, D0: stage D0; for Level of intensity of expression in log2 measured with the Agilent chips, D7: stage D7; for Level of intensity of expression in log2 measured with the Agilent chips, FC: stage FC; for Level of intensity of expression in log2 measured with the Agilent chips, WD: stage WD
Summary of the method: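 Microarray v2 (866 human + 89 viral miRNAs; miRBase v.12.0). Input: RNA from the same donors as sequencing. Labelling/hybridization per kit protocol. Profiles cross-checked vs sequencing.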

[2] = tested on: human airway epithelial cells (HAECs); assay: High-throughput sequencing (HTS) of miRNAs at four stages of differentiation of HAECs; details: for Modulation (ratio of the level of intensity of expression in log2 in two stages of differentiation) measured by high-throughput sequencing, D7 − D0 / Modulation (ratio of the level of intensity of expression in log2 in two stages of differentiation) measured by high-throughput sequencing, FC − D7 / Modulation (ratio of the level of intensity of expression in log2 in two stages of differentiation) measured by high-throughput sequencing, WD − D0 / Modulation (ratio of the level of intensity of expression in log2 in two stages of differentiation) measured by high-throughput sequencing, WD − FC / Level of intensity of expression in log2 measured by high-throughput sequencing, D0 / Level of intensity of expression in log2 measured by high-throughput sequencing, D7 / Level of intensity of expression in log2 measured by high-throughput sequencing, FC / Level of intensity of expression in log2 measured by high-throughput sequencing, WD: Table VI; for Level of intensity of expression in log2 At the differentiated stage (WD) measured in HTS: healthy human airway epithelial tissue; for Level of intensity of expression in log2 measured by high-throughput sequencing, D0: stage D0; for Level of intensity of expression in log2 measured by high-throughput sequencing, D7: stage D7; for Level of intensity of expression in log2 measured by high-throughput sequencing, FC: stage FC; for Level of intensity of expression in log2 At the differentiated stage (WD) measured in HTS / Level of intensity of expression in log2 measured by high-throughput sequencing, WD: stage WD
Summary of the method: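 Reads per 5p and 3p strand scaled to 10^6 sequences, then to percentage abundance; linear model plus empirical Bayes normalization. Retained miRNAs exceeded 1% of total in at least one condition, with |Log2 Ratio| below 0.5 and adjusted P-value below 0.05.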

[3] = tested on: basal cells and pyramidal cells of the airway epithelium; assay: miRNA expression in sorted basal cells versus pyramidal cells (ciliated + secretory), HTS and Agilent chips; set-up: species or system human; details: for Modulation of expression of the miRNAs in pyramidal cells (323(−)) relative to basal cells 323(+): HTS and Agilent chips; for Intensity of the level of expression in log2 in pyramidal cells (323(−)): pyramidal cells (ciliated + secretory)
Summary of the method: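 Nasal polyp or concha epithelial cells from 3 donors were stained with CD151-PE and anti-tissue factor-FITC for 20 min at 4° C, with DAPI excluding damaged cells. CD151+/TF+ basal and CD151−/TF− ciliated/secretory cells were FACS-sorted; total RNA miRNA profiles came from Agilent chips or high-throughput sequencing.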

| Substance | Modulation (ratio of the level of intensity of expression in log2 in two stages of differentiation) measured with the Agilent chips, D7 − D0 [1] [log2] | Modulation (ratio of the level of intensity of expression in log2 at two stages of differentiation), FC − D7 [1] [log2] | Modulation (ratio of the level of intensity of expression in log2 in two stages of differentiation) measured with the Agilent chips, FC − D7 [1] [log2] | Modulation (ratio of the level of intensity of expression in log2 in two stages of differentiation) measured with the Agilent chips, WD − D0 [1] [log2] | Modulation (ratio of the level of intensity of expression in log2 at two stages of differentiation), WD − FC [1] [log2] | Modulation (ratio of the level of intensity of expression in log2 in two stages of differentiation) measured with the Agilent chips, WD − FC [1] [log2] | Level of intensity of expression in log2 measured with the Agilent chips, D0 [1] [log2] | Level of intensity of expression in log2 measured with the Agilent chips, D7 [1] [log2] | Level of intensity of expression in log2 measured with the Agilent chips, FC [1] [log2] | Level of intensity of expression in log2 measured with the Agilent chips, WD [1] [log2] | Modulation (ratio of the level of intensity of expression in log2 in two stages of differentiation) measured by high-throughput sequencing, D7 − D0 [2] [log2] | Modulation (ratio of the level of intensity of expression in log2 in two stages of differentiation) measured by high-throughput sequencing, FC − D7 [2] [log2] | Modulation (ratio of the level of intensity of expression in log2 in two stages of differentiation) measured by high-throughput sequencing, WD − D0 [2] [log2] | Modulation (ratio of the level of intensity of expression in log2 in two stages of differentiation) measured by high-throughput sequencing, WD − FC [2] [log2] | Level of intensity of expression in log2 At the differentiated stage (WD) measured in HTS [2] [log2] | Level of intensity of expression in log2 measured by high-throughput sequencing, D0 [2] [log2] | Level of intensity of expression in log2 measured by high-throughput sequencing, D7 [2] [log2] | Level of intensity of expression in log2 measured by high-throughput sequencing, FC [2] [log2] | Level of intensity of expression in log2 measured by high-throughput sequencing, WD [2] [log2] | Modulation of expression of the miRNAs in pyramidal cells (323(−)) relative to basal cells 323(+) [3] | other results |
| --- | --- | --- | --- | --- | --- | --- | --- | --- | --- | --- | --- | --- | --- | --- | --- | --- | --- | --- | --- | --- | --- |
| hsa-miR-130a: human miRNA, SEQ ID No. 4 (CAGUGCAAUGUUAAAAGGGCAU; expressed or natural sequence; listed as Homo sapiens) | 0.65 | −1.53 | −1.53 | −1.31 | −0.43 | −0.43 | 8.83 | 9.48 | 7.95 | 7.52 | −1.40 | 0.19 | −1.94 | −0.73 | 11.98 | 13.91 | 12.51 | 12.71 | 11.98 | −6.33 | Modulation (ratio of the level of intensity of expression in log2 in two stages of differentiation), D7 − D0 ([2]; HTS): −1.40 log2; Modulation (ratio of the level of intensity of expression in log2 in two stages of differentiation), FC − D7 ([2]; HTS): 0.19 log2; Modulation (ratio of the level of intensity of expression in log2 in two stages of differentiation), WD − FC ([2]; HTS): −0.73 log2; Abundance (%), D0 ([2]; HTS, ALI-D0): 3.38%; Abundance (%), D7 ([2]; HTS, ALI-D7): 1.28%; Abundance (%), FC ([2]; HTS, ALI-FC): 1.42%; Abundance (%), WD ([2]; HTS, ALI-WD): 0.65%; Intensity of the level of expression in log2 in basal cells (323(+)) [3]: 9.76 log2; Intensity of the level of expression in log2 in pyramidal cells (323(−)) [3]: 3.43 log2; cell type in which the miRNA is specifically expressed ([3]; sorted ciliated/pyramidal versus basal cells): more specific to the basal cells |
| hsa-miR-26b: human miRNA, SEQ ID No. 29 (UUCAAGUAAUUCAGGAUAGGU; expressed or natural sequence; listed as Homo sapiens) | 1.94 | −0.37 | −0.37 | 1.65 | 0.08 | 0.08 | 7.97 | 9.91 | 9.54 | 9.62 | 0.09 | 0.05 | 0.92 | 0.78 | 6.81 | 6.84 | 6.93 | 6.97 | 7.75 | −1.47 | Intensity of the level of expression in log2 in basal cells (323(+)) [3]: 8.75 log2; Intensity of the level of expression in log2 in pyramidal cells (323(−)) [3]: 7.28 log2 |
| hsa-miR-34a: human miRNA, SEQ ID No. 38 (UGGCAGUGUCUUAGCUGGUUGU; expressed or natural sequence; listed as Homo sapiens) | 2.31 | −0.54 | −0.54 | 1.91 | 0.13 | 0.13 | 8.58 | 10.89 | 10.35 | 10.49 | 1.46 | −1.04 | 0.88 | 0.45 | 13.75 | 10.31 | 11.77 | 10.73 | 11.18 | 0.64 | Intensity of the level of expression in log2 in basal cells (323(+)) [3]: 6.72 log2; Intensity of the level of expression in log2 in pyramidal cells (323(−)) [3]: 7.36 log2 |
